Measurements as given in US20070287699A1, “ANTIVIRAL AGENTS” (ViroBay, Inc., priority 2006, published 2007).

Each molecule was assayed on HCV replicon RNA replication in human Huh7 hepatoma cells (assay: HCV replicon assay (activity levels from either or both of HCV replicon assay 1, Huh7/Clone A RT-qPCR, and assay 2, Huh7 ET luc-ubi-neo/ET)). Details: Hepatitis C virus, Huh-7, either or both HCV replicon assays: Huh7/Clone A, 48 hours, 72 hours, Luc activity or RT-PCR, read-out: inhibit HCV replication at IC50 levels or estimated IC50 levels.
Format: cell-based, Hepatitis C virus (HCV)
Text: The HCV replicon assay is a cell-culture system that mimics in vivo HCV replication and provides a system to study HCV replication in vitro. It was created by transfecting cloned viral RNA derived from a consensus HCV genomic sequence into human Huh7 hepatoma cells that are semi-permissive for viral RNA production (Lohmann V., Korner F., Koch J.-O., Herian U., Theilmann L. and Bartenschlager R. (1999). Replication of subgenomic Hepatitis C virus RNAs in a hepatoma cell line. Science 285, 110-113 and Blight K. J., Kolykhalov A. A. and Rice C. M. (2000). Efficient initiation of HCV RNA Replication in cell culture. Science 290, […]). These transfected cell lines contain a subgenomic HCV RNA genome that includes (1) the HCV 5′NTR fused to 12 amino acids of the capsid coding region, (2) the neomycin phosphotransferase gene (Neo) as a selectable marker, (3) the internal ribosome entry site (IRES) from encephalomyocarditis virus (EMCV) that directs translation of HCV non-structural proteins (variously NS2 or NS3 to NS5B), and (4) the 3′ NTR. Replicon-containing cells autonomously and persistently replicate HCV RNA that can be measured quantitatively by real-time qPCR. Therefore, the replicon system facilitates quantitative assessment of anti-viral activity by monitoring changes in HCV RNA replication in a cell-based assay.
HCV replicon-containing cells (Huh7/Clone A) were routinely maintained in Clone A growth medium (DMEM medium [Invitrogen], supplemented with 10% Fetal Bovine Serum, 1% Non Essential Amino Acids and 1 g/L G418). Test compounds were dissolved in dimethyl sulfoxide (DMSO) to make 200× stock solutions for all doses prior to treatment.
For the HCV replicon assay, Huh7/Clone A cells were trypsinized from culture flasks, seeded in 1 ml of Clone A growth medium without G418 at 4×10^4 cells per well in 24-well plates and incubated at 37° C. in a humidified CO2 (5%) incubator overnight. Following overnight incubation, compound solutions were added into wells in the same volume (5 μl of 200× compound stock per well) to give a final DMSO concentration of 0.5%. Three wells on each plate supplemented with 5 μl of DMSO served as untreated controls. For IC50 determinations, compounds were tested at 7 serial dilutions in triplicates from the starting stock solutions. The plates were incubated at 37° C. for 48 hours. After incubation, cells were harvested, transferred to 96-well plates, and subjected to total RNA extraction using the RNA Isolation Kit (RNeasy 96, Qiagen) according to the protocol described by the manufacture's RNeasy 96 Handbook (Qiagen).
Total RNA eluted in 130 μl of RNase-free dH2O was quantitated by the RiboGreen Assay according to the supplier's protocol (Molecular Probe). Briefly, 5 μl of RNA samples were aliquoted in duplicate to a 96-well black microplate and a 96-well TaqMan Optical plate. RNA samples in the black microplate were mixed with 95 μl of diluted RiboGreen:reagent (1:250 dilution in TE buffer) and sample fluorescence was measured using a fluorescence microplate reader at standard fluorescein wavelengths (excitation ˜480 nm, emission ˜520 nm). Ribosomal RNA (Molecular Probe) was used as standard.
TaqMan quantitative PCR (RT-qPCR) was used to quantitate the amount of HCV replicon RNA in each sample. The RT-qPCR reactions were performed in 25 μl on an ABI PRISM 7900 HT Sequence Detection System (Applied Biosystems). The reaction mixture contained 5 μl of total RNA (10-100 ng), 1× TaqMan Buffer A (Applied Biosystems), 5.5 mM MgCl2, 1.2 mM dNTP mix, 0.625 U of AmpliTaq Gold (Applied Biosystems), 5 U of MMLV reverse transcriptase (Promega), 5 U of rRNasin (Promega), 300 nM each of the forward and reverse primers, and 100 nM TaqMan MGB probe. Primers and probe were designed to hybridize to a portion of the neomycin resistance gene (neo) in the replicon and the sequences are as follows: forward primer 5′-GGCTACCTGCCCATTCGA-3′; reverse primer 5′-CCGGCTTCCATCCGAGTAC-3′; MGB probe 5′-CCACCAAGCGAAACA-3′. […]
For O=c1c(-c2noc(Cc3ccccc3)n2)cn(Cc2ccc(Cl)cc2)c2cc(N3CCNCC3)c(F)cc12 [Compound 25, 3-(5-benzyl-[1,2,4]oxadiazol-3-yl)-1-(4-chloro-benzyl)-6-fluoro-7-piperazin-1-yl-1H-quinolin-4-one], the IC50 was under 2 µM.
Work on O=c1c(-c2noc(Cc3ccccc3)n2)cn(Cc2ccc(Cl)cc2)c2cc(N3CCC(O)CC3)c(F)cc12 [Compound 26, 3-(5-benzyl-[1,2,4]oxadiazol-3-yl)-1-(4-chloro-benzyl)-6-fluoro-7-(4-hydroxy-piperidin-1-yl)-1H-quinolin-4-one] yielded an IC50 of over 10 µM.
Work on CC(=O)N1CCN(c2cc3c(cc2F)c(=O)c(-c2noc(Cc4ccccc4)n2)cn3Cc2ccc(Cl)cc2)CC1 [Compound 27, 7-(4-acetyl-piperazin-1-yl)-3-(5-benzyl-[1,2,4]oxadiazol-3-yl)-1-(4-chloro-benzyl)-6-fluoro-1H-quinolin-4-one] yielded an IC50 of under 2 µM.
Molecule CN1CCN(c2cc3c(cc2F)c(=O)c(-c2noc(Cc4ccc(F)cc4)n2)cn3Cc2ccc(Cl)cc2)CC1 [Compound 28, 1-(4-chloro-benzyl)-6-fluoro-3-[5-(4-fluoro-benzyl)-[1,2,4]oxadiazol-3-yl]-7-(4-methyl-piperazin-1-yl)-1H-quinolin-4-one] has an IC50 of under 2 µM.
CN1CCN(c2cc3c(cc2F)c(=O)c(-c2noc(C(CC(=O)O)c4ccccc4)n2)cn3Cc2ccc(Cl)cc2)CC1 (stereo not drawn) [Compound 31, 3-{3-[1-(4-chloro-benzyl)-6-fluoro-7-(4-methyl-piperazin-1-yl)-4-oxo-1,4-dihydro-quinolin-3-yl]-[1,2,4]oxadiazol-5-yl}-3-phenyl-propionic acid] was tested, and the IC50 was over 10 µM.
Work on CN1CCN(c2cc3c(cc2F)c(=O)c(-c2noc(Cc4ccc(F)cc4F)n2)cn3Cc2ccc(Cl)cc2)CC1 [Compound 32, 1-(4-chloro-benzyl)-3-[5-(2,4-difluoro-benzyl)-[1,2,4]oxadiazol-3-yl]-6-fluoro-7-(4-methyl-piperazin-1-yl)-1H-quinolin-4-one] yielded an IC50 of over 10 µM.
For CN1CCN(c2cc3c(cc2F)c(=O)c(-c2noc(Cc4c(F)cccc4F)n2)cn3Cc2ccc(Cl)cc2)CC1 [Compound 33, 1-(4-chloro-benzyl)-3-[5-(2,6-difluoro-benzyl)-[1,2,4]oxadiazol-3-yl]-6-fluoro-7-(4-methyl-piperazin-1-yl)-1H-quinolin-4-one], the IC50 was under 10 µM.
For CN1CCN(c2cc3c(cc2F)c(=O)c(-c2noc(Cc4ccc(F)cc4)n2)cn3Cc2ccc(Cl)cc2F)CC1 [Compound 34, 1-(4-chloro-2-fluoro-benzyl)-6-fluoro-3-[5-(4-fluoro-benzyl)-[1,2,4]oxadiazol-3-yl]-7-(4-methyl-piperazin-1-yl)-1H-quinolin-4-one], the IC50 was under 2 µM.
Work on CN1CCN(c2cc3c(cc2F)c(=O)c(-c2noc(Cc4ccccc4)n2)cn3Cc2ccc(C(F)(F)F)cc2)CC1 [Compound 36, 3-(5-benzyl-[1,2,4]oxadiazol-3-yl)-6-fluoro-7-(4-methyl-piperazin-1-yl)-1-(4-trifluoromethyl-benzyl)-1H-quinolin-4-one] yielded an IC50 of under 2 µM.
For CN1CCN(c2cc3c(cc2F)c(=O)c(-c2noc(Cc4ccc(F)cc4)n2)cn3Cc2ccc(C(F)(F)F)cc2)CC1 [Compound 37, 6-fluoro-3-[5-(4-fluoro-benzyl)-[1,2,4]oxadiazol-3-yl]-7-(4-methyl-piperazin-1-yl)-1-(4-trifluoromethyl-benzyl)-1H-quinolin-4-one], the IC50 was under 2 µM.
In the case of O=c1c(-c2noc(Cc3ccccc3)n2)cn(Cc2ccc(C(F)(F)F)cc2F)c2cc(N3CCCNCC3)c(F)cc12 [Compound 38, 3-(5-benzyl-[1,2,4]oxadiazol-3-yl)-7-[1,4]diazepan-1-yl-6-fluoro-1-(2-fluoro-4-trifluoromethyl-benzyl)-1H-quinolin-4-one], the IC50 is reported as under 0.5 µM.
Molecule CCCCCc1nc(-c2cn(Cc3ccc(C(F)(F)F)cc3F)c3cc(N4CCN(C)CC4)c(F)cc3c2=O)no1 [Compound 40, 6-fluoro-1-(2-fluoro-4-trifluoromethyl-benzyl)-7-(4-methyl-piperazin-1-yl)-3-(5-pentyl-[1,2,4]oxadiazol-3-yl)-1H-quinolin-4-one] has an IC50 of under 2 µM.
CN1CCN(c2cc3c(cc2F)c(=O)c(-c2noc(Cc4ccccc4)n2)cn3Cc2c(F)cccc2Cl)CC1 [Compound 41, 3-(5-benzyl-[1,2,4]oxadiazol-3-yl)-1-(2-chloro-6-fluoro-benzyl)-6-fluoro-7-(4-methyl-piperazin-1-yl)-1H-quinolin-4-one] gave an IC50 of over 10 µM.
Work on CN1CCN(c2cc3c(cc2F)c(=O)c(-c2noc(Cc4ccc(F)cc4)n2)cn3Cc2c(F)cccc2Cl)CC1 [Compound 42, 1-(2-chloro-6-fluoro-benzyl)-6-fluoro-3-[5-(4-fluoro-benzyl)-[1,2,4]oxadiazol-3-yl]-7-(4-methyl-piperazin-1-yl)-1H-quinolin-4-one] yielded an IC50 of under 10 µM.
O=C(O)c1ccc2c(c1)c(=O)c(-c1noc(Cc3ccccc3)n1)cn2Cc1ccc(C(F)(F)F)cc1F [Compound 43, 3-(5-benzyl-[1,2,4]oxadiazol-3-yl)-1-(2-fluoro-4-trifluoromethyl-benzyl)-4-oxo-1,4-dihydro-quinoline-6-carboxylic acid] showed an IC50 of over 10 µM.
Molecule CN1CCN(c2cc3c(cc2F)c(=O)c(-c2noc(Cc4ccc(F)cc4)n2)cn3Cc2ccc(F)cc2F)CC1 [Compound 44, 1-(2,4-difluoro-benzyl)-6-fluoro-3-[5-(4-fluoro-benzyl)-[1,2,4]oxadiazol-3-yl]-7-(4-methyl-piperazin-1-yl)-1H-quinolin-4-one] has an IC50 of under 2 µM.
CN1CCN(c2cc3c(cc2F)c(=O)c(-c2noc(Cc4ccccc4)n2)cn3Cc2ccccc2F)CC1 [Compound 45, 3-(5-benzyl-[1,2,4]oxadiazol-3-yl)-6-fluoro-1-(2-fluoro-benzyl)-7-(4-methyl-piperazin-1-yl)-1H-quinolin-4-one] was tested, and the IC50 was under 10 µM.
With CN1CCN(c2cc3c(cc2F)c(=O)c(-c2noc(Cc4cc(F)cc(F)c4)n2)cn3Cc2ccc(Cl)cc2)CC1 [Compound 46, 1-(4-chloro-benzyl)-3-[5-(3,5-difluoro-benzyl)-[1,2,4]oxadiazol-3-yl]-6-fluoro-7-(4-methyl-piperazin-1-yl)-1H-quinolin-4-one] the IC50 was under 10 µM.
For CN1CCN(c2cc3c(cc2F)c(=O)c(-c2noc(Cc4ccc(F)cc4)n2)cn3Cc2ccccc2F)CC1 [Compound 47, 6-fluoro-3-[5-(4-fluoro-benzyl)-[1,2,4]oxadiazol-3-yl]-1-(2-fluoro-benzyl)-7-(4-methyl-piperazin-1-yl)-1H-quinolin-4-one], the IC50 was under 10 µM.
CN1CCN(c2cc3c(cc2F)c(=O)c(-c2noc(Cc4ccccc4)n2)cn3Cc2c(F)cccc2F)CC1 [Compound 48, 3-(5-benzyl-[1,2,4]oxadiazol-3-yl)-1-(2,6-difluoro-benzyl)-6-fluoro-7-(4-methyl-piperazin-1-yl)-1H-quinolin-4-one] gave an IC50 of under 10 µM.

Same assay, conditions: either or both HCV replicon assays: Huh7/Clone A, 48 hours, 72 hours, Luc activity or RT-PCR, read-out: inhibit HCV replication at IC50 levels or estimated IC50 levels
Work on CN1CCN(c2cc3c(cc2F)c(=O)c(-c2noc(Cc4ccccc4)n2)cn3Cc2ccc(C(F)(F)F)cc2F)CC1 [Compound 35, 3-(5-benzyl-[1,2,4]oxadiazol-3-yl)-6-fluoro-1-(2-fluoro-4-trifluoromethyl-benzyl)-7-(4-methyl-piperazin-1-yl)-1H-quinolin-4-one] yielded an IC50 of under 2 µM.
